What was measured:
Test in all cases: relative viability (nuclei count vs DMSO), 5 days (fraction); higher = more cells survive
[1] = compound: NC(=O)c1ccc(N(C(N)=O)c2c(F)cccc2F)nc1-c1ccc(F)cc1F [VX-702] + COc1cc2c(Oc3ccc(NC(=O)C4(C(=O)Nc5ccc(F)cc5)CC4)cc3F)ccnc2cc1OCCCN1CCOCC1 [Foretinib] (partner 0.25 µM)
Outline: (§1)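 Relative viability equals treated-well nuclei counts divided by vehicle-well nuclei counts. Counts came from 4× images of lung cancer cell lines grown in 1536-well plates for 5 days after pin-tool dosing on the day after seeding. Dosing used one drug alone or a fixed anchor-drug dose plus five library-drug doses (not always all listed) in √10 steps, and values are medians of duplicate plates.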

[2] = compound: NC(=O)c1ccc(N(C(N)=O)c2c(F)cccc2F)nc1-c1ccc(F)cc1F [VX-702] + C[C@@H](Oc1cc(-c2cnn(C3CCNCC3)c2)cnc1N)c1c(Cl)ccc(F)c1Cl [Crizotinib] (partner 1 µM)
Outline: as §1

[3] = compound: CC(C)(C)c1nc(-c2cccc(NS(=O)(=O)c3c(F)cccc3F)c2F)c(-c2ccnc(N)n2)s1 [Dabrafenib] + O=C(c1cc(Cc2n[nH]c(=O)c3ccccc23)ccc1F)N1CCN(C(=O)C2CC2)CC1 [Olaparib] (partner 8 µM)
Outline: as §1

[4] = compound: CC(C)(C)c1nc(-c2cccc(NS(=O)(=O)c3c(F)cccc3F)c2F)c(-c2ccnc(N)n2)s1 [Dabrafenib] + NC(=O)Nc1cc(-c2cccc(F)c2)sc1C(=O)N[C@H]1CCCNC1 [AZD7762] (partner 0.2 µM)
Outline: as §1

Cell Line | relative viability ([1]; first compound 0.02 µM) | relative viability ([1]; first compound 0.2 µM) | relative viability ([1]; first compound 0.6325 µM) | relative viability ([1]; first compound 2 µM) | relative viability ([2]; first compound 0.02 µM) | relative viability ([2]; first compound 0.2 µM) | relative viability ([2]; first compound 0.6325 µM) | relative viability ([2]; first compound 2 µM) | relative viability ([3]; first compound 0.003 µM) | relative viability ([3]; first compound 0.009487 µM) | relative viability ([3]; first compound 0.03 µM) | relative viability ([3]; first compound 0.09487 µM) | relative viability ([3]; first compound 0.3 µM) | relative viability ([4]; first compound 0.003 µM) | relative viability ([4]; first compound 0.009487 µM) | relative viability ([4]; first compound 0.09487 µM) | relative viability ([4]; first compound 0.3 µM) | relative viability ([4]; first compound 0.03 µM)
NCI-H1299 | 1.15 | 1.14 | 1.15 | 1.22 | 1.07 | 0.97 | 0.942 | 1.07 | 0.932 | 0.886 | 0.902 | 0.884 | 0.794 | – | – | – | – | –
NCI-H1563 | 1.04 | 0.914 | 1 | 0.822 | 0.848 | 0.875 | 0.83 | 0.865 | – | – | – | – | – | – | – | – | – | –
SK-MES-1 | 0.935 | 0.97 | 0.934 | 0.911 | 0.989 | 0.94 | 0.986 | 1.09 | 0.582 | 0.671 | 0.627 | 0.567 | 0.393 | – | – | – | – | –
NCI-H1648 | – | – | – | – | – | – | – | – | 1.01 | 0.98 | – | 0.523 | 0.765 | 0.638 | 0.797 | 0.611 | 0.802 | –
A549 | 1.02 | 0.975 | 0.92 | 1.07 | 0.754 | 0.812 | 0.739 | 1.08 | – | 0.34 | 0.293 | 0.112 | 0.317 | – | – | – | – | –
NCI-H661 | 1.11 | 1.08 | 1.12 | 1.1 | 1.08 | 0.977 | 0.939 | 1.11 | 0.739 | 0.685 | 0.746 | 0.75 | 0.773 | – | – | – | – | –
NCI-H2009 | 1.28 | 1.28 | 1.28 | 1.38 | 1.11 | 1.13 | 1.18 | 1.25 | 0.638 | 0.626 | 0.625 | 0.439 | 0.516 | – | – | – | – | –
UMC-11 | 0.988 | 0.843 | 0.893 | 1.21 | 0.578 | 0.596 | 0.512 | 0.692 | 0.443 | 0.879 | 0.354 | 0.317 | 0.427 | – | – | – | – | –
IA-LM | 1.21 | 1.1 | 1.2 | 1.15 | 0.792 | 0.862 | 0.722 | 1.05 | 0.873 | 0.743 | 0.831 | 0.687 | 0.554 | – | – | – | – | –
EBC-1 | 0.107 | 0.111 | 0.0889 | 0.0899 | 0.191 | 0.18 | 0.158 | 0.201 | 0.686 | 0.691 | 0.664 | 0.39 | 0.474 | – | – | – | – | –
NCI-H1395 | 0.986 | 1.03 | 0.968 | 1.12 | – | – | – | – | – | 0.497 | 0.473 | 0.456 | 0.495 | – | 0.385 | 0.424 | 0.412 | 0.402
NCI-H1650 | 1.04 | 1.17 | 1.02 | 1.29 | 1.19 | 1.05 | 1 | 1.24 | 0.827 | 0.721 | 0.764 | 0.794 | 1.01 | – | – | – | – | –
NCI-H522 | – | – | – | – | – | – | – | – | – | 0.788 | 0.59 | 0.642 | 0.633 | – | 0.936 | 0.88 | 0.841 | 0.717
NCI-H2023 | 0.761 | 0.722 | 0.724 | 1 | 0.586 | 0.563 | 0.555 | 0.698 | 0.478 | 0.432 | 0.492 | 0.46 | 0.458 | – | – | – | – | –
Calu-6 | 0.975 | 0.902 | 0.896 | 0.971 | 0.847 | 0.86 | 0.764 | 0.996 | 0.569 | 0.556 | 0.482 | 0.303 | 0.481 | – | – | – | – | –
COR-L23 | 1.04 | 1 | 0.995 | 1.38 | 0.768 | 0.666 | 0.668 | 0.757 | 0.394 | 0.291 | 0.312 | 0.325 | 0.324 | – | – | – | – | –
NCI-H2342 | 0.887 | 1.07 | 1.02 | 1.14 | – | – | – | – | 0.42 | 0.435 | 0.401 | 0.454 | 0.541 | 0.364 | 0.486 | 0.481 | 0.55 | 0.417
NCI-H520 | 0.876 | 0.73 | 0.607 | 0.744 | 0.887 | 0.687 | 0.784 | 0.966 | 0.312 | 0.317 | 0.305 | 0.271 | 0.354 | – | – | – | – | –
NCI-H1793 | 0.671 | 0.705 | 0.703 | 0.719 | – | – | – | – | – | 1.06 | – | 0.612 | 1.09 | – | 0.489 | 0.493 | 0.434 | –
SK-LU-1 | 0.917 | 0.786 | 0.777 | 1.01 | 0.96 | 0.751 | 0.934 | 0.963 | – | 0.521 | 0.372 | 0.347 | 0.406 | – | – | – | – | –
COR-L 105 | 1.02 | 0.838 | 1.14 | 1.3 | 0.653 | 0.79 | 0.956 | 1.21 | 0.685 | 0.793 | 0.702 | 0.599 | 0.799 | – | – | – | – | –
SW 1573 | 1.05 | 0.876 | 0.784 | 0.679 | 0.8 | 0.721 | 0.773 | 0.784 | 0.501 | 0.468 | 0.475 | 0.415 | 0.453 | – | – | – | – | –
NCI-H1623 | 0.819 | 0.81 | 0.835 | 0.744 | – | – | – | – | – | – | – | – | – | – | – | – | – | –
NCI-H2228 | 0.889 | 0.851 | 1.07 | 0.887 | 0.628 | 0.536 | 0.394 | 0.45 | 0.757 | 0.464 | 0.615 | 0.439 | 0.693 | – | – | – | – | –
